Measured values as given in patent publication US7666900B2, “ABCA1 stabilizer” (Hykes Laboratories LLC, priority 2004, dated 2010).

How the values were obtained:
ABCA1 = ABCA1 expression in THP-1 cells (immunoblotting of total membrane fraction); type: cell-based, human; details: for ABCA1 Expression Level (Relative Ratio %): PMA-differentiated THP-1 macrophages, compound incorporated into acetyl-LDL, 48 h then 24 h with or without apoAI, non-treated cells = 100; for intracellular ABCA1 expression level compared with non-treated cells (in words): THP-1 cells
Experimental: (§1) THP-1 cells (human leukemia cells: American Type Culture Collection) were cultured for 72 hours in a 10% FBS-RPMI1640 medium (Iwaki Glass Co., Ltd.) under the presence of PMA (phorbol myristate acetate, 3.2×10^−7 M: Wako Pure Chemical Industries, Ltd.) to obtain differentiated macrophages. Probucol spiroquinone (Synthesis Example 1), probucol diphenoquinone (Synthesis Example 2), or probucol bisphenol (Synthesis Example 3) was added to a medium after being incorporated into acetyl-LDL according to a method of Tsujita, et al. [BIOCHEMISTRY, 35, 13011-13020 (1996)]. The cells were cultured in this medium for 48 hours, and then further cultured for 24 hours in the presence or absence of apoAI. The expression levels of intracellular ABCA1 were assayed according to a method disclosed herein below.
The agent-treated cells and non-treated cells were hypotonically disrupted in 5 mM Tris-HCl (pH 8.5), and then centrifuged (650 g for 5 minutes) to precipitate nuclear fractions. The supernatant was centrifuged at 105,000 g for 30 minutes to collect a total membrane fraction. The total membrane was dissolved in a solution containing 0.9 M urea, 0.2% Triton X-100, and 0.1% dithiothreitol, followed by addition of 10% lithium dodecyl sulfate solution at a volume ratio of 1/4. The resultant was subjected to electrophoretic separation using 10% SDS-7% polyacrylamide gel. The separated proteins were transferred and fixed onto PVDF membrane (Bio-Rad), and then subjected to immunoblotting with anti-human ABCA1 rabbit antibody (self-purified by an ordinary technique) to examine expressed ABCA1 protein levels. The obtained bands of the protein were read for density and size with Scion Image (image analysis software: Scion) to convert the results into digitized forms. The relative ratio of the ABCA1 expression level of the drug-treated cells to that of the non-treated cells was calculated to evaluate the ABCA1-expression activity of the assayed compounds.

[1] = Increase of blood HDL level (rabbit), intravenous microemulsion; type: in vivo; details: i.v. microemulsion once a day for 7 days, control = 100
Experimental: The microemulsion (0.5 to 10 mL/body) was administered to each group of 4 rabbits via the ear vein once a day for 7 days. To a control group, a microemulsion containing no test drug was administered in the same manner. Blood was collected in the presence of heparin sodium from the ear vein of each rabbit at 3 hours after the last administration. The blood was centrifuged at 2000 g for 10 minutes to separate plasma. The plasma was applied to electrophoresis using Paragon Electrophoresis System (Beckman Coulter, Inc.) to separate plasma lipoprotein, followed by lipid staining. The images on the gel after the lipid staining were examined to covert the plasma HDL level of each rabbit into a digitized form for the evaluation. In reference to the content amount of each compound in the microemulsion, each blood compound level assumed just after the intravenous administration thereof was set as the dose of each compound.

THP-1 cells = test: apoAI-dependent HDL-generating reaction in THP-1 cells (cholesterol and phospholipid taken out into the medium); type: cell-based, human; details: for Release of HDL Cholesterol (Relative Ratio %) / Release of Phospholipid (Relative Ratio %): apoAI-dependent, non-treated cells = 100
Experimental: as §1
The cultured cells obtained in the same manner as in Assay Example 1 were examined for cholesterol and phospholipid taken out into the medium by the apoAI-dependent HDL-generating reaction, according to a method of Arakawa, et al. [J. LIPID RES., 41, 1952-1962, (2000)]. The results of the drug-treated cells were compared with that of non-treated cells (control). The resulting data were converted into digitized forms as in Assay Example 1, and the relative ratios of the taken out level in the drug-treated cells to that in the non-treated cells were calculated to evaluate the HDL-generating reaction accelerated by the assayed compounds. For comparison, the HDL-generating reaction accelerated by probucol (Wako Pure Chemical Industries, Ltd.) was examined in the same manner as aforementioned.

[2] = Toxicity test, oral administration to mice for one week; type: in vivo
Description: Probucol spiroquinone, probucol diphenoquinone, and probucol bisphenol were orally administered to mice for one week.

[3] = Increase of blood HDL level (mouse), oral administration; type: in vivo; details: for Plasma HDL Level (Relative Ratio %): 3 hours after last administration, control = 100
Experimental: Probucol spiroquinone (Synthesis Example 1: 50 mg/kg or 150 mg/kg) or probucol diphenoquinone (Synthesis Example 2: 50 mg/kg or 150 mg/kg) suspended in a 0.5% carboxymethylcellulose solution was orally administered to each group of 3 or 4 mice once a day for 7 days. To a control group, only the 0.5% carboxymethylcellulose solution was administered in the same manner. Animals were subjected to laparotomy under ether anesthesia at 3 hours after the last administration, and blood was collected in the presence of heparin sodium from the heart of each mouse. The blood was centrifuged at 2000 g for 10 minutes to separate plasma. The plasma was applied to electrophoresis using Paragon Electrophoresis System (Beckman Coulter, Inc.) to separate plasma lipoprotein, followed by lipid staining. The images on the gel after the lipid staining were examined to covert the plasma HDL level of each mouse into a digitized form for the evaluation.

[4] = dose as assumed blood level 0.14 μM
[5] = dose as assumed blood level 0.57 μM
[6] = 50 mg/kg orally once a day for 7 days
[7] = 150 mg/kg orally once a day for 7 days

SMILES | ABCA1 Expression Level (Relative Ratio %) (ABCA1) | intracellular ABCA1 expression level compared with non-treated cells (in words) (ABCA1) | Plasma HDL Level (Relative Ratio %) [1, 4] | Plasma HDL Level (Relative Ratio %) [1, 5] | Release of HDL Cholesterol (Relative Ratio %) (THP-1 cells) | Release of Phospholipid (Relative Ratio %) (THP-1 cells) | findings in toxicity test [2] | Plasma HDL Level (Relative Ratio %) [3, 6] | Plasma HDL Level (Relative Ratio %) [3, 7] | Plasma HDL Level (Relative Ratio %) ([1]; dose as assumed blood level 0.16 μM) | Plasma HDL Level (Relative Ratio %) ([1]; dose as assumed blood level 0.31 μM) | plasma HDL level increase compared with control group ([3]; 50 or 150 mg/kg orally once a day for 7 days) | apoAI-dependently taken out HDL cholesterol (in words) (THP-1 cells) | level of taken out phospholipid as fraction of non-treated cells (THP-1 cells)
CC(C)(C)c1cc(-c2cc(C(C)(C)C)c(O)c(C(C)(C)C)c2)cc(C(C)(C)C)c1O [Probucol bisphenol, 4,4′-dihydroxy-3,5,3′,5′-tetra-t-butyldiphenyl] | 153% | remarkably elevated | 145% | 135% | 137% | 144% | no abnormal findings were observed | – | – | – | – | – | – | –
CC(C)(C)C1=CC(=C2C=C(C(C)(C)C)C(=O)C(C(C)(C)C)=C2)C=C(C(C)(C)C)C1=O [Probucol diphenoquinone, 3,5,3′,5′-tetra-t-butyl-4,4′-diphenoquinone] | 173% | remarkably elevated | – | – | 159% | 200% | no abnormal findings were observed | 113% | 180% | 148% | 130% | – | – | –
CC1(C)SC2(C=C(C(C)(C)C)C(=O)C(C(C)(C)C)=C2)C2(C=C(C(C)(C)C)C(=O)C(C(C)(C)C)=C2)S1 [Probucol spiroquinone, 2,4,9,11-tetrakis(1,1-dimethylethyl)-14,14-dimethyl-13,15-dithiadispiro[5.0.5.3]pentadeca-1,4,8,11-tetraene-3,10-dione] | 191% | remarkably elevated | 157% | 194% | 148% | 151% | no abnormal findings were observed | 120% | 124% | – | – | about 1.2 times | – | –
CC(C)(Sc1cc(C(C)(C)C)c(O)c(C(C)(C)C)c1)Sc1cc(C(C)(C)C)c(O)c(C(C)(C)C)c1 [Probucol, 4,4′-(isopropylidenedithio)bis(2,6-di-t-butylphenol), reference compound] | – | – | – | – | 0% | 34% | – | – | – | – | – | – | no apoAI-dependently taken out HDL cholesterol was observed | less than ⅓
